Data on one compound can be found in publication PMC3648489, “The sodium glucose cotransporter 2 inhibitor empagliflozin does not prolong QT interval in a thorough QT (TQT) study” (Cardiovascular Diabetology, 2013).

The series concerns healthy volunteers. As to the kind of experiment: Safety and tolerability (adverse events) in the TQT study. The following applies: human, in vivo. The series is classed as in vivo, human. The method, then: Secondary endpoints were the changes from period baseline in QTcN at any time point between 0.5–24 hours after dosing. In addition, the MCfB 2–4 hours after dosing (for assessment of the moxifloxacin effect), and the MCfB of all ECGs taken 0.5–24 hours after dosing were evaluated. Safety and tolerability were evaluated based on physical examination, vital signs, ECG, clinical laboratory tests, adverse events (AEs) and the physician’s assessment of global tolerability.
Categorical endpoints such as AEs, cardiologic assessments and occurrence of ECG intervals beyond thresholds of regulatory concern (e.g. QTc >450 ms) were analysed based on incidence rates adjusted for the number of periods in which the treatment was given. Additionally, the analysis of such events in periods with any of the two doses of empagliflozin compared with the two placebo periods provides a direct comparison of incidence rates. All analyses were performed on the “full analysis set”, which comprised all recorded data of all subjects who received at least one dose of study treatment and had at least one ECG endpoint assessment at baseline and post treatment. No imputation for missing data was planned or performed.

Turning to `OC[C@H]1O[C@@H](c2ccc(Cl)c(Cc3ccc(O[C@H]4CCOC4)cc3)c2)[C@H](O)[C@@H](O)[C@@H]1O` [Empagliflozin, empagliflozin], the “Volunteers experiencing AEs” value is recorded as 23.3%.
